Values joined by “and” are separate entries in the source; they are usually repeats but may differ in a detail not shown here. Equal entries are not always repeated. Inconclusive results are not listed.
System: CD8F1 mice, subcutaneous mammary adenocarcinoma, T/C%
Assay: NCI In Vivo Anticancer Drug Screen. Data for tumor model Mammary Adenocarcinoma CD8F1 (subcutaneous) in CD8F1
Settings: higher = larger tumour
Description: The antitumor activity of compounds was measured in mice bearing transplantable tumors. Survival or tumor size were measured and the results are expressed as the measurement made in the treated group (T) divided by the measurement made in the vehicle treated control group (C). The tumor model used in this assay is Mammary Adenocarcinoma CD8F1 (subcutaneous) in CD8F1

[1] = endpoint: median tumor weight change, dose: 125.0 mg/kg/injection, schedule: Q01DX001 (ip), vehicle: Klucel (hydroxypropylcellulose) (HPC)
[2] = endpoint: median tumor weight change, dose: 250.0 mg/kg/injection, schedule: Q01DX001 (ip), vehicle: Klucel (hydroxypropylcellulose) (HPC)
[3] = endpoint: median tumor weight (est.), dose: 12.5 mg/kg/injection, schedule: Q07DX005 (ip), vehicle: saline with Tween-80
[4] = endpoint: median tumor weight (est.), dose: 25.0 mg/kg/injection, schedule: Q07DX005 (ip), vehicle: saline with Tween-80
[5] = endpoint: median tumor weight (est.), dose: 50.0 mg/kg/injection, schedule: Q07DX005 (ip), vehicle: saline with Tween-80
[6] = endpoint: median tumor weight (est.), dose: 3.12 mg/kg/injection, schedule: Q07DX005 (ip), vehicle: Klucel (hydroxypropylcellulose) (HPC)
[7] = endpoint: median tumor weight (est.), dose: 12.5 mg/kg/injection, schedule: Q07DX005 (ip), vehicle: Klucel (hydroxypropylcellulose) (HPC)
[8] = endpoint: median tumor weight (est.), dose: 25.0 mg/kg/injection, schedule: Q07DX005 (ip), vehicle: Klucel (hydroxypropylcellulose) (HPC)
[9] = endpoint: median tumor weight (est.), dose: 50.0 mg/kg/injection, schedule: Q07DX005 (ip), vehicle: Klucel (hydroxypropylcellulose) (HPC)
[10] = endpoint: median tumor weight (est.), dose: 12.5 mg/kg/injection, schedule: Q07DX005 (ip), vehicle: saline
[11] = endpoint: median tumor weight (est.), dose: 25.0 mg/kg/injection, schedule: Q07DX005 (ip), vehicle: saline

CC[C@H]1CN2CCc3cc(OC)c(OC)cc3[C@@H]2C[C@@H]1C[C@H]1NCCc2cc(OC)c(OC)cc21
T/C (endpoint: mean tumor weight, dose: 0.88 mg/kg/injection, schedule: Q07DX006 (ip), vehicle: saline): 46 % of control | T/C (endpoint: mean tumor weight, dose: 1.75 mg/kg/injection, schedule: Q07DX005 (ip), vehicle: saline): 163 % of control | T/C (endpoint: mean tumor weight, dose: 1.75 mg/kg/injection, schedule: Q07DX006 (ip), vehicle: saline): 65 % of control | T/C (endpoint: mean tumor weight, dose: 3.5 mg/kg/injection, schedule: Q07DX005 (ip), vehicle: saline): 258 % of control | T/C (endpoint: mean tumor weight, dose: 3.5 mg/kg/injection, schedule: Q07DX006 (ip), vehicle: saline): 42 % of control | T/C (endpoint: mean tumor weight, dose: 7.0 mg/kg/injection, schedule: Q07DX005 (ip), vehicle: saline): 153 % of control | T/C (endpoint: mean tumor weight, dose: 7.0 mg/kg/injection, schedule: Q07DX006 (ip), vehicle: saline): 73 % of control | T/C (endpoint: mean tumor weight, dose: 14.0 mg/kg/injection, schedule: Q07DX005 (ip), vehicle: saline): 156 % of control | T/C (endpoint: mean tumor weight, dose: 14.0 mg/kg/injection, schedule: Q07DX006 (ip), vehicle: saline): 96 % of control | T/C (endpoint: median tumor weight (est.), dose: 1.75 mg/kg/injection, schedule: Q07DX005 (ip), vehicle: saline): 214 % of control | T/C (endpoint: median tumor weight (est.), dose: 3.5 mg/kg/injection, schedule: Q07DX005 (ip), vehicle: saline): 166 % of control | T/C (endpoint: median tumor weight (est.), dose: 7.0 mg/kg/injection, schedule: Q07DX005 (ip), vehicle: saline): 92 % of control | T/C (endpoint: median tumor weight (est.), dose: 28.0 mg/kg/injection, schedule: Q07DX005 (ip), vehicle: saline): 86 % of control

CN(C)C(=O)SC1=C(c2c(Cl)cccc2Cl)C(=O)c2ccccc21
T/C [1]: 101 % of control and 115 % of control | T/C [2]: 98 % of control and 109 % of control | T/C (endpoint: median tumor weight change, dose: 500.0 mg/kg/injection, schedule: Q01DX001 (ip), vehicle: Klucel (hydroxypropylcellulose) (HPC)): 113 % of control | T/C (endpoint: median tumor weight change, dose: 1000.0 mg/kg/injection, schedule: Q01DX001 (ip), vehicle: Klucel (hydroxypropylcellulose) (HPC)): 74 % of control and 75 % of control | T/C (endpoint: median tumor weight change, dose: 2000.0 mg/kg/injection, schedule: Q01DX001 (ip), vehicle: Klucel (hydroxypropylcellulose) (HPC)): 22 % of control and 38 % of control

CCc1c(CC(=O)O)c2cc(C)ccc2n1Cc1ccc(Cl)cc1
T/C [1]: 89 % of control | T/C [2]: 101 % of control

CC(=O)Oc1[nH]c(=O)c2cccc3c2c1CCC3
T/C (endpoint: median tumor weight change, dose: 450.0 mg/kg/injection, schedule: Q01DX001 (ip), vehicle: saline with Tween-80): 155 % of control | T/C (endpoint: median tumor weight change, dose: 1800.0 mg/kg/injection, schedule: Q01DX001 (ip), vehicle: saline with Tween-80): 99 % of control

CC1(C)CC2(C)OC2C2(C1)N=NC(=Nc1ccccc1)O2 (stereo not drawn)
T/C (endpoint: median tumor weight change, dose: 125.0 mg/kg/injection, schedule: Q01DX001 (ip), vehicle: saline with Tween-80): 78 % of control | T/C (endpoint: median tumor weight change, dose: 250.0 mg/kg/injection, schedule: Q01DX001 (ip), vehicle: saline with Tween-80): 64 % of control | T/C (endpoint: median tumor weight change, dose: 500.0 mg/kg/injection, schedule: Q01DX001 (ip), vehicle: saline with Tween-80): 41 % of control

CC1(CO)C(O)CCC2(C)C1CCC1CC3CC12CCC3(O)CO (stereo not drawn)
T/C [3]: 39 % of control | T/C (endpoint: median tumor weight (est.), dose: 18.75 mg/kg/injection, schedule: Q07DX005 (ip), vehicle: saline with Tween-80): 53 % of control | T/C [4]: 55 % of control | T/C (endpoint: median tumor weight (est.), dose: 37.5 mg/kg/injection, schedule: Q07DX005 (ip), vehicle: saline with Tween-80): 85 % of control | T/C [5]: 60 % of control | T/C (endpoint: median tumor weight (est.), dose: 100.0 mg/kg/injection, schedule: Q07DX005 (ip), vehicle: saline with Tween-80): 58 % of control | T/C (endpoint: median tumor weight (est.), dose: 200.0 mg/kg/injection, schedule: Q07DX005 (ip), vehicle: saline with Tween-80): 92 % of control | T/C (endpoint: median tumor weight (est.), dose: 400.0 mg/kg/injection, schedule: Q07DX005 (ip), vehicle: saline with Tween-80): 13 % of control

C/C=C(\C)C(=O)OC1C(C)C2(O)C(C=C(CO)CC3(O)C(=O)C(C)=CC32)C2C(C)(C)C12OC(=O)CCCCCCCCC (stereo not drawn)
T/C (endpoint: median tumor weight (est.), dose: 0.06 mg/kg/injection, schedule: Q07DX005 (ip), vehicle: saline + alcohol): 91 % of control | T/C (endpoint: median tumor weight (est.), dose: 0.12 mg/kg/injection, schedule: Q07DX005 (ip), vehicle: saline + alcohol): 76 % of control | T/C (endpoint: median tumor weight (est.), dose: 0.25 mg/kg/injection, schedule: Q07DX005 (ip), vehicle: saline + alcohol): 92 % of control

NC(CCl)=NCC12CC3CC(CC(C3)C1)C2
T/C [6]: 114 % of control | T/C [7]: 104 % of control and 119 % of control | T/C [8]: 90 % of control | T/C [9]: 39 % of control and 51 % of control

Nc1nc2n[nH]nc2c(=O)[nH]1
T/C (endpoint: median tumor weight change, dose: 250.0 mg/kg/injection, schedule: Q01DX001 (ip), vehicle: suspension in saline): 73 % of control | T/C (endpoint: median tumor weight change, dose: 500.0 mg/kg/injection, schedule: Q01DX001 (ip), vehicle: suspension in saline): 45 % of control

CC1(C)CC23C4COC(=O)C2CCC1C3CC4=O (stereo not drawn)
T/C (endpoint: median tumor weight (est.), dose: 18.0 mg/kg/injection, schedule: Q07DX005 (ip), vehicle: DMSO): 72 % of control | T/C (endpoint: median tumor weight (est.), dose: 18.0 mg/kg/injection, schedule: Q07DX005 (ip), vehicle: Klucel (hydroxypropylcellulose) (HPC)): 98 % of control | T/C (endpoint: median tumor weight (est.), dose: 36.0 mg/kg/injection, schedule: Q07DX005 (ip), vehicle: DMSO): 79 % of control | T/C (endpoint: median tumor weight (est.), dose: 36.0 mg/kg/injection, schedule: Q07DX005 (ip), vehicle: Klucel (hydroxypropylcellulose) (HPC)): 89 % of control | T/C (endpoint: median tumor weight (est.), dose: 72.0 mg/kg/injection, schedule: Q07DX005 (ip), vehicle: Klucel (hydroxypropylcellulose) (HPC)): 97 % of control | T/C (endpoint: median tumor weight (est.), dose: 144.0 mg/kg/injection, schedule: Q07DX005 (ip), vehicle: Klucel (hydroxypropylcellulose) (HPC)): 71 % of control | T/C (endpoint: median tumor weight (est.), dose: 288.0 mg/kg/injection, schedule: Q07DX005 (ip), vehicle: DMSO): 87 % of control | T/C (endpoint: median tumor weight (est.), dose: 288.0 mg/kg/injection, schedule: Q07DX005 (ip), vehicle: Klucel (hydroxypropylcellulose) (HPC)): 66 % of control

OCC1OC(n2cnc3c(Cl)ncnc32)C(O)C1O (stereo not drawn)
T/C [10]: 90 % of control | T/C [11]: 26 % of control | T/C (endpoint: median tumor weight (est.), dose: 100.0 mg/kg/injection, schedule: Q07DX005 (ip), vehicle: saline): 28 % of control | T/C (endpoint: median tumor weight (est.), dose: 200.0 mg/kg/injection, schedule: Q07DX005 (ip), vehicle: saline): 71 % of control | T/C (endpoint: median tumor weight (est.), dose: 400.0 mg/kg/injection, schedule: Q07DX005 (ip), vehicle: saline): 115 % of control

O=CC(O)C(O)C(O)C(O)C(=O)O.[NH-]C1CCCCC1[NH-].[Pt+2] (stereo not drawn)
T/C (endpoint: median tumor weight (est.), dose: 6.25 mg/kg/injection, schedule: Q07DX005 (ip), vehicle: suspension in saline): 48 % of control | T/C (endpoint: median tumor weight (est.), dose: 12.5 mg/kg/injection, schedule: Q07DX005 (ip), vehicle: suspension in saline): 7 % of control and 32 % of control | T/C (endpoint: median tumor weight (est.), dose: 25.0 mg/kg/injection, schedule: Q07DX005 (ip), vehicle: suspension in saline): 6 % of control

O=Cc1ccc([N+](=O)[O-])s1
T/C (endpoint: median tumor weight (est.), dose: 6.25 mg/kg/injection, schedule: Q07DX005 (ip), vehicle: saline with Tween-80): 225 % of control | T/C [3]: 71 % of control | T/C [4]: 295 % of control | T/C [5]: 156 % of control

COC1C(O)C(C)OC(OC2C(Oc3cccc4c(O)c5c(=O)oc6ccc(C)c7c(=O)oc(c34)c5c67)OC(C)C(O)C2O)C1O (stereo not drawn)
T/C [7]: 73 % of control | T/C [8]: 75 % of control | T/C [9]: 50 % of control

N=C(N)CCCCCCCCC(=N)N
T/C [6]: 67 % of control | T/C (endpoint: median tumor weight (est.), dose: 3.12 mg/kg/injection, schedule: Q07DX005 (ip), vehicle: saline): 86 % of control | T/C (endpoint: median tumor weight (est.), dose: 6.25 mg/kg/injection, schedule: Q07DX005 (ip), vehicle: Klucel (hydroxypropylcellulose) (HPC)): 123 % of control | T/C (endpoint: median tumor weight (est.), dose: 6.25 mg/kg/injection, schedule: Q07DX005 (ip), vehicle: saline): 78 % of control | T/C [7]: 34 % of control | T/C [10]: 76 % of control | T/C [8]: 31 % of control | T/C [11]: 28 % of control | T/C (endpoint: median tumor weight change, dose: 8.0 mg/kg/injection, schedule: Q01DX001 (ip), vehicle: saline): 61 % of control | T/C (endpoint: median tumor weight change, dose: 15.63 mg/kg/injection, schedule: Q01DX001 (ip), vehicle: saline): 77 % of control | T/C (endpoint: median tumor weight change, dose: 16.0 mg/kg/injection, schedule: Q01DX001 (ip), vehicle: saline): 186 % of control | T/C (endpoint: median tumor weight change, dose: 31.25 mg/kg/injection, schedule: Q01DX001 (ip), vehicle: saline): 76 % of control | T/C (endpoint: median tumor weight change, dose: 32.0 mg/kg/injection, schedule: Q01DX001 (ip), vehicle: saline): 48 % of control

Reference: PubChem BioAssay AID220 (DTP/NCI, 2004)
